The text below walks through data of PubChem BioAssay AID179 (DTP/NCI, 2004).

A word on the EC50: it is the concentration giving half of the maximal effect. Broadly, the IC50 is the point on the concentration scale where inhibition reaches its midpoint. Higher therefore signals lower potency.

Where “and” joins values, the source holds several entries; their conditions need not be identical. Identical values can stand only once. Calls of active or inactive are those of the source.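 How the source made its calls: active means compounds giving half or more protection of infected cells from virus-caused growth loss, again on retest; inactive means the rest.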 Where a SMILES comes first, the peptide text is derived from it. The star is where a group is joined. Boc = CC(C)(C)OC(=O)*

For the assay, the system named is CEM cells HIV-1 protection, formazan growth assay. The experiment in a line: NCI AIDS Antiviral Assay. The note with it: for IC50: measured here: growth of uninfected CEM cells. A digest of the protocol:
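Human CEM cells, uninfected and HIV-1-infected, exposed to five drug concentrations; growth measured by soluble formazan assay and scored as percent protection from infection, with protecting compounds retested.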

For the molecule `Sc1ccc2ccccc2c1CNC1CCCCC1`, the EC50 is greater than 200 µM and the IC50 stood at 28.2 µM.

As for `COP(=O)(Cc1ccccc1)Cc1ccccc1`, the EC50 is greater than 200 µM and the concentration for half-maximal inhibition (IC50) is greater than 200 µM.

For the molecule `CCOc1ccc(NC(=O)C2=C(C)NC(C)=C(C(=O)Nc3ccc(OCC)cc3)C2c2ccccc2)cc1`, the EC50 is greater than 36.3 µM and the IC50 is greater than 36.3 µM.

Take `CCCCCCc1cc2c(O)c(C(c3ccccc3)c3c(O)c4cc(CCCCCC)c(O)cc4oc3=O)c(=O)oc2cc1O`: the EC50 was greater than 200 µM and the IC50 was determined as 5.62 µM.

Regarding `CN(C)P(=O)(/C(N)=N/Nc1ccc([N+](=O)[O-])cc1)N(C)C`, the EC50 is greater than 158 µM and the IC50 turned out to be 155 µM.

In the case of `COc1ccccc1[B-]12OCC[N+]1(CNC(=O)C1=C(O)C3(O)C(=O)C4=C(O)c5c(O)cccc5C(C)(O)C4CC3C(N(C)C)C1=O)CCO2` (configuration not stated), the EC50 was greater than 27.5 µM and the half-inhibitory concentration (IC50) was greater than 27.5 µM.

Turning to `C=CCc1ccccc1CC1(OCC)OC(=O)c2ccccc21` (configuration not stated), the EC50 is greater than 43.7 µM and the IC50 is greater than 43.7 µM.

On to `COC(=O)C(Cc1c[nH]c2ccccc12)NC(=O)C(Cc1c[nH]c2ccccc12)NC(=O)C(Cc1c[nH]c2ccccc12)NC(=O)C(Cc1c[nH]c2ccccc12)NC(=O)C(Cc1c[nH]c2ccccc12)NC(=O)C(Cc1c[nH]c2ccccc12)NC(=O)C(Cc1c[nH]c2ccccc12)NC(=O)C(Cc1c[nH]c2ccccc12)NC(=O)OC(C)(C)C` (configuration not stated) (Boc-WWWWWWWW-OMe; configuration not given here), for which the EC50 was greater than 100 µM and the IC50 came out at 40.7 µM.

Turning to `Cc1ccc(N=Nc2c(N)nn3cc4c(nc23)-c2ccccc2C4)cc1`, the EC50 was greater than 200 µM and the IC50 stood at 2.95 µM.

Turning to `O=c1oc2c3ccc4ccccc4c3n(CCN3CCCCC3)c2c2ccccc12`, the EC50 is greater than 8.71 µM and the half-inhibitory concentration (IC50) came to 6.76 µM.

For `CC(CC(=O)N1C(=O)C(C)(C)[C@@H](O)[C@H]1CC(C)C(Cl)(Cl)Cl)C(Cl)(Cl)Cl` (some centres not stated), the outcome was inactive.

Consider `C=C(C(=C)P(=S)(c1ccccc1)c1ccccc1)P(=S)(c1ccccc1)c1ccccc1`, for which the EC50 was greater than 26.9 µM and the IC50 was greater than 26.9 µM.

As for `CC1(C)C(=O)C2(OS(=O)(=O)C(F)(F)F)CCC1C2` (configuration not stated), the EC50 is greater than 200 µM and the half-maximal inhibitory concentration (IC50) was greater than 200 µM.

For the molecule `CCCCCSCCCCCCCC(=O)OCC1OC(n2cc(C)c(=O)[nH]c2=O)CC1N=[N+]=[N-]` (configuration not stated), the result was active and the IC50 came out at 91.2 µM.

With `COc1ccc2c(c1OC)OC1CNc3cc(C)c(C)cc3N=C1C2` (configuration not stated), the EC50 was 1.35 µM and the half-maximal inhibitory concentration (IC50) was found to be 4.57 µM.

In the case of `COC1C2CC3C4(CCC5C6(C)CCCC53C(C14)N(C)C6)CC21CCC23C4C=C5C6=C(CCC5(CC42)C3O1)C1(C)CC(C6)CN(C)C1` (configuration not stated), the EC50 is 0.38 µM and the IC50 worked out at 18.6 µM.

For `Cc1cn(C2CC(OC3CCCCO3)C(CO)O2)c(=O)[nH]c1=O` (configuration not stated), the EC50 was greater than 200 µM and the 50% inhibitory concentration (IC50) is greater than 200 µM.

With `CN(C)CC/C(=N\Nc1ccc([N+](=O)[O-])cc1)c1ccccc1`, the result was inactive.

Regarding `CCC(C)[C@H]1C(=O)N=C(N)N1C(=O)OCc1ccccc1` (some centres not stated), the EC50 was 195 µM and the 50% inhibitory concentration (IC50) was greater than 200 µM.

In the case of `CCC1=C(C[C@H]2NCCc3cc(OC)c(OC)cc32)C[C@H]2c3cc(OC)c(OC)cc3CCN2C1`, the outcome was inactive.

Regarding `CC(C)CCCC(C)[C@H]1CCC2[C@@H]3CCC4Nc5c(cnn5-c5ccccc5)C[C@]4(C)C3CC[C@@]21C` (some centres not stated), the result was inactive.

Consider `CCCC/C(C)=N/NC(N)=S`, for which the result was inactive.

`CCO/C=N/C1=C(C#N)C(c2ccc(Cl)cc2)c2c(-c3ccccc3)nn(-c3ccccc3)c2O1` (configuration not stated): the EC50 was greater than 20 µM and the IC50 stood at 17 µM.

For the molecule `Cc1cc2c(=O)cc(-c3ccc(O)cc3)oc2c(C(=O)O)c1C`, the result was inactive.

Consider `CCCOc1ccc2[nH]cc(C(COC)c3c[nH]c4ccc(OCCC)cc34)c2c1`, for which the EC50 is greater than 200 µM and the 50% inhibitory concentration (IC50) was found to be 12.9 µM.

Consider `Fc1ccc(OCc2nc3cc(C(F)(F)F)ccc3nc2-c2ccccc2)cc1`, for which the EC50 was greater than 200 µM and the half-maximal inhibitory concentration (IC50) came to 138 µM.

As for `COc1ccc(-c2c(C(C)=O)c(-c3ccccc3)n(C3OC(COC(C)=O)C(OC(C)=O)C(OC(C)=O)C3OC(C)=O)c(=S)c2C#N)cc1O` (configuration not stated), the EC50 was greater than 200 µM; the IC50 is 24.5 µM and 38.9 µM.

In the case of `CCc1c(Cc2ccccc2)n(COCCO)c(=O)[nH]c1=O`, the EC50 was 9.55 µM and the concentration for half-maximal inhibition (IC50) is greater than 200 µM.

For the molecule `COc1ccc2[nH]c3c(C)c4ccnc(NCCCN(C)CCCNc5ccc([N+](=O)[O-])c6[nH]c7ccccc7c(=O)c56)c4c(C)c3c2c1`, the EC50 is greater than 0.0501 µM and the half-inhibitory concentration (IC50) came to 0.0257 µM.

For `O=C(O)CN1C(=O)C(=O)c2cc([N+](=O)[O-])ccc21`, the EC50 is greater than 200 µM and the IC50 is greater than 200 µM.

Regarding `COC(=O)c1c(C)cc(C)cc1OC`, the EC50 was greater than 200 µM and the 50% inhibitory concentration (IC50) came to 151 µM.

For `CNC(=O)N(C(C)(C)C)S(=O)(=O)c1ccc(Cl)cc1`, the outcome was inactive.

For the molecule `CC(=O)n1[nH]c(=O)n(-c2ccc(Cl)cc2)c1=O`, the EC50 was greater than 200 µM and the IC50 is greater than 200 µM.

In the case of `CC(=O)O[C@H]1CC[C@@]2(C)C(=C[C@H](c3ccc(O)cc3)[C@H]3[C@@H]4CC[C@H](OC(C)=O)[C@@]4(C)CC[C@@H]32)C1`, the EC50 was greater than 200 µM and the IC50 turned out to be 22.9 µM.

`Cn1c(=O)c(C(=O)NC(=O)OCc2ccccc2)cn(CCCOC(=O)CCCCCCCCC(=O)OCCCn2cc(C(=O)NC(=O)OCc3ccccc3)c(=O)n(C)c2=O)c1=O`: the EC50 is greater than 21.4 µM and the half-inhibitory concentration (IC50) is greater than 21.4 µM.

Take `[O-][n+]1c2ccccc2[n+]([O-])c2c3ccccc3[nH]c21`: the EC50 was greater than 20.9 µM and the concentration for half-maximal inhibition (IC50) is greater than 20.9 µM.

`Clc1cc2nsnc2c(Cl)n1`: the EC50 was greater than 457 µM and the 50% inhibitory concentration (IC50) was 2.75 µM.

For `CSC(C)CS(=O)(=O)O` (configuration not stated), the EC50 is greater than 200 µM and the 50% inhibitory concentration (IC50) is greater than 200 µM.

On to `CCOC(=O)C(=O)Nc1ccc(Cl)c(C(F)(F)F)c1`, for which the outcome was inactive.

Turning to `CC1=N/C(=C\c2ccc([N+](=O)[O-])cc2)C(=O)O1`, the EC50 is greater than 155 µM and the IC50 was greater than 155 µM.

In the case of `COC1(c2ccc(Cl)cc2)SC=C(C)n2c1noc2=O` (configuration not stated), the EC50 is greater than 200 µM and the IC50 was greater than 200 µM.

Regarding `CC(=S)N=Cc1c(C)[nH]n(-c2ccccc2)c1=O`, the EC50 was greater than 100 µM and the IC50 is 41.7 µM.

Take `OCC1OC(n2cnc3c(I)ncnc32)C(O)C1O` (configuration not stated): the result was inactive.

Consider `CC1=C(C(=O)NNC(=O)C[N+](C)(C)C)CC(C(=O)NNC(=O)C[N+](C)(C)C)=C(C)N1`, for which the EC50 was greater than 200 µM and the concentration for half-maximal inhibition (IC50) was found to be 95.5 µM.

For `CCCC(=O)OC1C(C(O)CO)OC2OC(C)(C)OC21` (configuration not stated), the EC50 was greater than 871 µM and the IC50 was greater than 871 µM.

Regarding `CCCNC(=O)OCCCOC(=O)/C=C(\C(=O)OCCCOC(=O)NCCC)N1[C@H](C)Cc2c(-c3cc(-c4cc(-c5c(O)cc(O)c6c5C[C@@H](C)N[C@@H]6C)c5cc(C)cc(OC)c5c4O)c(O)c4c(OC)cc(C)cc34)c(O)cc(O)c2[C@H]1C`, the EC50 was greater than 25.1 µM and the IC50 is greater than 25.1 µM.

Regarding `c1ccc(-c2csc3[n+]2CCN3)cc1`, the EC50 was greater than 200 µM and the IC50 was found to be 126 µM.

For `COC(=O)C1Cc2c([nH]c3ccccc23)C(c2ccccc2O)N1Cc1ccccc1` (configuration not stated), the result was inactive.

On to `O=C1CC(c2ccc(O)c(O)c2)c2cc(O)c3c(c2O1)C[C@@H](O)[C@@H](c1ccc(O)c(O)c1)O3` (some centres not stated), for which the EC50 is greater than 200 µM and the IC50 turned out to be 15.8 µM.

For the molecule `NC(CS)=NC1CCCCC1`, the EC50 is greater than 200 µM and the IC50 is 107 µM.

Regarding `N#C/C(=C\c1ccc(C#N)cc1)C(=O)O`, the EC50 is greater than 36.3 µM and the IC50 was greater than 36.3 µM.

For the molecule `Cc1nnc2n1N=C(c1ccc(-c3ccc([N+](=O)[O-])cc3)o1)CS2`, the EC50 was greater than 5.89 µM and the IC50 was greater than 5.89 µM.

For `COc1ccc2c(c1OC)[C@]13CCCC[C@@H]1[C@H](C2)N(C)CC3`, the result was inactive.

Turning to `CC(C)CC(NC(=O)C(Cc1ccc(O)cc1)NC(=O)C(CO)NC(=O)C(CCC(N)=O)NC(=O)C1CCCN1C(=O)C(CC(C)C)NC(=O)C(C)NC(=O)CNC(=O)C(N)CCC(N)=O)C(=O)NCC(=O)O` (configuration not stated) (H-QGALPQSYLG-OH; configuration not given here), the outcome was inactive.

For the molecule `O=C(O)c1cc(=O)c2cc(C(=O)c3cccs3)c(Cl)c(Cl)c2o1`, the EC50 was greater than 9.55 µM and the IC50 was greater than 9.55 µM.

Turning to `O=c1[nH]c(=O)n(C2OC(CF)C(O)C2O)cc1Br` (configuration not stated), the EC50 is greater than 200 µM and the half-maximal inhibitory concentration (IC50) was greater than 200 µM.

As to `CCOC(=O)c1nc2ccccc2nc1NCc1ccc(OC)cc1`, the EC50 is greater than 138 µM and the IC50 was determined as 70.8 µM.

With `COc1ccc2c(c1)CCC1=CC3(CCC12C)SCCS3` (configuration not stated), the EC50 was greater than 58.9 µM and the concentration for half-maximal inhibition (IC50) was 10.2 µM.

On to `CN(C)CCN1C(=O)c2ccccc2C1(O)c1ccc(Cl)cc1` (configuration not stated), for which the EC50 was greater than 200 µM and the half-inhibitory concentration (IC50) turned out to be 44.7 µM.

Regarding `Cc1ccc(S(=O)(=O)/N=S(\C)c2cccc(Cl)c2)cc1` (configuration not stated), the EC50 was greater than 200 µM and the concentration for half-maximal inhibition (IC50) was 170 µM.

With `O=C1C=CC2=C3c4cc(O)c(O)cc4CC3(O)COC2=C1O` (configuration not stated), the EC50 is greater than 45.7 µM and the half-maximal inhibitory concentration (IC50) was determined as 40.7 µM.

As to `CC(C)(C)[Si](C)(C)OCC1OC(n2ccc(=O)[nH]c2=O)C(O[Si](C)(C)C(C)(C)C)[C@]12N[C@H](C(=O)O)CS2` (some centres not stated), the EC50 is greater than 200 µM and the IC50 came to 10.7 µM.

In the case of `CCCCCCCCCCCOCCC1C(C(C)OCCN2CCCC2)OC2OC(C)(C)OC21` (configuration not stated), the EC50 is greater than 200 µM and the 50% inhibitory concentration (IC50) came out at 9.12 µM.

Consider `COc1ccc(NC(=S)Nc2cc(C)ccn2)cc1`, for which the EC50 is greater than 200 µM and the half-maximal inhibitory concentration (IC50) is greater than 200 µM.

As to `Cn1ccnc1Sc1c([N+](=O)[O-])ncn1C`, the EC50 is greater than 1050 µM and the half-inhibitory concentration (IC50) was found to be 7.94 µM.

Consider `Oc1ccc(SCc2cc(O)ccc2O)cc1`, for which the EC50 was greater than 200 µM and the IC50 is 7.08 µM.

For `COc1cccc2c1[C@]1(O)C(O)CCCC21` (some centres not stated), the EC50 is greater than 200 µM and the IC50 was greater than 200 µM.
